Assay [1] has as its system Rattus norvegicus. Put plainly: Antihyperglycemic activity in sucrose challenged albino Sprague-Dawley rat STZ-S model assessed as decrease in blood glucose level at 100 mg/kg, po preincubated 30 min before sucrose challenge measured 5 hrs after last dose. Set-up: scale not given: the % may be the effect or the level left. The assay is classed as functional.
Assay [2] relates to Rattus norvegicus. The assay can be described thus: Antihyperglycemic activity in sucrose challenged albino Sprague-Dawley rat STZ-S model assessed as decrease in blood glucose level at 100 mg/kg, po preincubated 30 min before sucrose challenge measured 24 hrs after last dose. The assay is classed as functional. Set-up: scale not given: the % may be the effect or the level left.

Assay [3] deals with Syrian golden hamster. The assay can be described thus: Antidyslipidemic activity in high fat diet fed dyslipidemic golden Syrian hamster model assessed as change in plasma HDL-cholesterol level at 50 mg/kg, po administered once daily from day 4 to day 10 measured on day 10 after 2 hrs of last dose relative to baseline. It is filed as functional, Mesocricetus auratus.
For assay [4], the system named is Syrian golden hamster. Put plainly: Antidyslipidemic activity in high fat diet fed dyslipidemic golden Syrian hamster model assessed as change in plasma glycerol level at 50 mg/kg, po administered once daily from day 4 to day 10 measured on day 10 after 2 hrs of last dose relative to baseline. The assay is classed as functional, Mesocricetus auratus.
The subject of assay [5] is Syrian golden hamster. The assay can be described thus: Antidyslipidemic activity in high fat diet fed dyslipidemic golden Syrian hamster model assessed as change in plasma […] level at 50 mg/kg, po administered once daily from day 4 to day 10 measured on day 10 after 2 hrs of last dose relative to baseline. It is filed as functional, Mesocricetus auratus.
The subject of assay [6] is Syrian golden hamster. Put plainly: Antidyslipidemic activity in high fat diet fed dyslipidemic golden Syrian hamster model assessed as change in plasma HDL to cholesterol ratio at 50 mg/kg, po administered once daily from day 4 to day 10 measured on day 10 after 2 hrs of last dose relative to baseline. The assay is classed as functional, Mesocricetus auratus.
In assay [7] the test system is Syrian golden hamster. The assay can be described thus: Antidyslipidemic activity in high fat diet fed dyslipidemic golden Syrian hamster model assessed as change in food intake at 50 mg/kg, po administered once daily from day 4 to day 10 measured on day 10 after 2 hrs of last dose relative to baseline. The assay is classed as functional, Mesocricetus auratus.
The subject of assay [8] is Syrian golden hamster. The assay can be described thus: Antidyslipidemic activity in high fat diet fed dyslipidemic golden Syrian hamster model assessed as change in plasma triglyceride level at 50 mg/kg, po administered once daily from day 4 to day 10 measured on day 10 after 2 hrs of last dose relative to baseline. The assay is classed as functional, Mesocricetus auratus.

Assay [9] deals with Syrian golden hamster. The assay can be described thus: Antidyslipidemic activity in high fat diet fed dyslipidemic golden Syrian hamster model assessed as change in plasma cholesterol level at 50 mg/kg, po administered once daily from day 4 to day 10 measured on day 10 after 2 hrs of last dose relative to baseline. The assay is classed as functional, Mesocricetus auratus.
Assay [10] concerns Syrian golden hamster. The assay can be described thus: Antidyslipidemic activity in high fat diet fed dyslipidemic golden Syrian hamster model assessed as change in plasma triglyceride level at 100 mg/kg, po administered once daily from day 4 to day 10 measured on day 10 after 2 hrs of last dose relative to baseline. The assay is classed as functional, Mesocricetus auratus.
The subject of assay [11] is Syrian golden hamster. The assay can be described thus: Antidyslipidemic activity in high fat diet fed dyslipidemic golden Syrian hamster model assessed as change in plasma free fatty acid level at 100 mg/kg, po administered once daily from day 4 to day 10 measured on day 10 after 2 hrs of last dose relative to baseline. It is filed as functional, Mesocricetus auratus.

The test system of assay [12] is Syrian golden hamster. The assay can be described thus: Antidyslipidemic activity in high fat diet fed dyslipidemic golden Syrian hamster model assessed as change in plasma HDL to cholesterol ratio at 100 mg/kg, po administered once daily from day 4 to day 10 measured on day 10 after 2 hrs of last dose relative to baseline. The assay is classed as functional, Mesocricetus auratus.

Assay [13] has as its system Syrian golden hamster. The assay can be described thus: Antidyslipidemic activity in high fat diet fed dyslipidemic golden Syrian hamster model assessed as change in plasma HDL-cholesterol level at 100 mg/kg, po administered once daily from day 4 to day 10 measured on day 10 after 2 hrs of last dose relative to baseline. The assay is classed as functional, Mesocricetus auratus.

For assay [14], the system named is Syrian golden hamster. The assay can be described thus: Antidyslipidemic activity in high fat diet fed dyslipidemic golden Syrian hamster model assessed as change in plasma glycerol level at 100 mg/kg, po administered once daily from day 4 to day 10 measured on day 10 after 2 hrs of last dose relative to baseline. The assay is classed as functional, Mesocricetus auratus.

Assay [15] concerns Syrian golden hamster. The assay can be described thus: Antidyslipidemic activity in high fat diet fed dyslipidemic golden Syrian hamster model assessed as change in plasma cholesterol level at 100 mg/kg, po administered once daily from day 4 to day 10 measured on day 10 after 2 hrs of last dose relative to baseline. It is filed as functional, Mesocricetus auratus.
Assay [16] has as its system Syrian golden hamster. Put plainly: Antidyslipidemic activity in high fat diet fed dyslipidemic golden Syrian hamster model assessed as change in plasma HDL to cholesterol ratio at 108 mg/kg, po administered once daily from day 4 to day 10 measured on day 10 after 2 hrs of last dose. It is filed as functional, Mesocricetus auratus.
The subject of assay [17] is Syrian golden hamster. Put plainly: Antidyslipidemic activity in high fat diet fed dyslipidemic golden Syrian hamster model assessed as change in plasma cholesterol level at 108 mg/kg, po administered once daily from day 4 to day 10 measured on day 10 after 2 hrs of last dose. It is filed as functional, Mesocricetus auratus.
Assay [18] deals with Syrian golden hamster. Put plainly: Antidyslipidemic activity in high fat diet fed dyslipidemic golden Syrian hamster model assessed as change in plasma triglyceride level at 108 mg/kg, po administered once daily from day 4 to day 10 measured on day 10 after 2 hrs of last dose. The assay is classed as functional, Mesocricetus auratus.
Assay [19] relates to Syrian golden hamster. The assay can be described thus: Antidyslipidemic activity in high fat diet fed dyslipidemic golden Syrian hamster model assessed as change in plasma HDL-cholesterol level at 108 mg/kg, po administered once daily from day 4 to day 10 measured on day 10 after 2 hrs of last dose. Set-up: dose 108 mg/kg. The assay is classed as functional, organism-based. Particulars: Mesocricetus auratus.

Assay [20] has as its system Syrian golden hamster. Put plainly: Antidyslipidemic activity in high fat diet fed dyslipidemic golden Syrian hamster model assessed as change in plasma glycerol level at 108 mg/kg, po administered once daily from day 4 to day 10 measured on day 10 after 2 hrs of last dose. The assay is classed as functional, Mesocricetus auratus.

Structures are written as SMILES. Active and inactive are the calls of the source. The rule behind the calls is not given here.

Turning to `C=C(C)[C@@H]1CC[C@]2(C)CC[C@]3(C)[C@H](CC[C@@H]4[C@@]5(C)CC[C@H](OC(=O)CCc6cccnc6)C(C)(C)[C@@H]5CC[C@]43C)[C@@H]12`, the Activity was -8.21% in the assay on Rattus norvegicus [1] and -10.4% with Rattus norvegicus [2].
Turning to `C=C(C)[C@@H]1CC[C@]2(C)CC[C@]3(C)[C@H](CC[C@@H]4[C@@]5(C)CC[C@H](OC(=O)c6ccc7ccccc7n6)C(C)(C)[C@@H]5CC[C@]43C)[C@@H]12`, the Activity was -30% in the assay on Syrian golden hamster [3]; -20% in the assay on Syrian golden hamster [4]; -8% in the assay with Syrian golden hamster [5]; -5% with Syrian golden hamster [6]; 11% in the assay on Syrian golden hamster [7]; -7% in the assay on Syrian golden hamster [8]. Moreover, the Activity in the assay with Syrian golden hamster [9] is recorded as -27%.
In the case of `C=C(C)[C@@H]1CC[C@]2(C)CC[C@]3(C)[C@H](CC[C@@H]4[C@@]5(C)CC[C@H](O)C(C)(C)[C@@H]5CC[C@]43C)[C@@H]12` [LUPEOL], the Activity in the assay with Syrian golden hamster [10] was -26%; with Syrian golden hamster [11], -23%; with Syrian golden hamster [12] it was 63%; with Syrian golden hamster [13], 44%; in the assay with Syrian golden hamster [14] it was -10%; in the assay with Syrian golden hamster [15], -9%.
In the case of `C=C(C)[C@@H]1CC[C@]2(C)CC[C@]3(C)[C@H](CC[C@@H]4[C@@]5(C)CC[C@H](OC(=O)CNC(=O)c6ccccc6)C(C)(C)[C@@H]5CC[C@]43C)[C@@H]12`, the Activity was -13.8% with Rattus norvegicus [1] and -23.6% with Rattus norvegicus [2].
With `C=C(C)[C@@H]1CC[C@]2(C)CC[C@]3(C)[C@H](CC[C@@H]4[C@@]5(C)CC[C@H](OC(=O)Cc6ccc(OC)cc6)C(C)(C)[C@@H]5CC[C@]43C)[C@@H]12`, the Activity is recorded as -5% in the assay with Syrian golden hamster [3]; -8% with Syrian golden hamster [4]; 4% in the assay with Syrian golden hamster [5]; 24% in the assay on Syrian golden hamster [6]; -4% in the assay with Syrian golden hamster [7]; 20% in the assay on Syrian golden hamster [8]. Also, in the assay with Syrian golden hamster [9], the Activity is listed as -25%.
As to `C=C(C)[C@@H]1CC[C@]2(C)CC[C@]3(C)[C@H](CC[C@@H]4[C@@]5(C)CC[C@H](OC(=O)c6cccnc6)C(C)(C)[C@@H]5CC[C@]43C)[C@@H]12`, the Activity in the assay with Syrian golden hamster [3] is 5%; with Rattus norvegicus [1] it was -18.3%; with Rattus norvegicus [2], -25%; with Syrian golden hamster [4], -30%; with Syrian golden hamster [5] it was 2%; in the assay on Syrian golden hamster [6], 57%. The Activity is given as 8% in the assay with Syrian golden hamster [7], -40% with Syrian golden hamster [8] and -24% in the assay with Syrian golden hamster [9].
Turning to `C=C(C)[C@@H]1CC[C@]2(C)CC[C@]3(C)[C@H](CC[C@@H]4[C@@]5(C)CC[C@H](OC(=O)c6ccc(Cl)cc6)C(C)(C)[C@@H]5CC[C@]43C)[C@@H]12`, the Activity is -14% in the assay on Syrian golden hamster [3]; -17.8% in the assay with Rattus norvegicus [1]; -19.6% in the assay with Rattus norvegicus [2]; -14% in the assay on Syrian golden hamster [4]; 5% with Syrian golden hamster [5]; 14% in the assay with Syrian golden hamster [6]. The Activity is on record as 4% in the assay with Syrian golden hamster [7], -11% in the assay on Syrian golden hamster [8] and -27% in the assay on Syrian golden hamster [9].
For the compound `CC(C)OC(=O)C(C)(C)Oc1ccc(C(=O)c2ccc(Cl)cc2)cc1` [FENOFIBRATE], the Activity is 10% in the assay with Syrian golden hamster [16], -18% in the assay with Syrian golden hamster [17], -42% in the assay with Syrian golden hamster [18] and -36% in the assay on Syrian golden hamster [20]. Further, in the assay with Syrian golden hamster [19], the outcome was inactive.
Regarding `C=C(C)[C@@H]1CC[C@]2(C)CC[C@]3(C)[C@H](CC[C@@H]4[C@@]5(C)CC[C@H](OC(=O)/C=C/c6ccsc6)C(C)(C)[C@@H]5CC[C@]43C)[C@@H]12`, the Activity in the assay on Rattus norvegicus [1] was -16.9%; in the assay with Rattus norvegicus [2] it was -21.5%.
In the case of `C=C(C)[C@@H]1CC[C@]2(C)CC[C@]3(C)[C@H](CC[C@@H]4[C@@]5(C)CC[C@H](OC(=O)/C=C/c6ccco6)C(C)(C)[C@@H]5CC[C@]43C)[C@@H]12`, the Activity in the assay on Rattus norvegicus [1] is -15.8%; with Rattus norvegicus [2], -18.5%.
Take `C=C(C)[C@@H]1CC[C@]2(C)CC[C@]3(C)[C@H](CC[C@@H]4[C@@]5(C)CC[C@H](OC(=O)c6ccc([N+](=O)[O-])cc6)C(C)(C)[C@@H]5CC[C@]43C)[C@@H]12`: the Activity with Syrian golden hamster [3] was -30%; with Rattus norvegicus [1] it was -14.8%; with Rattus norvegicus [2], -21.1%; in the assay with Syrian golden hamster [4], -21%; in the assay on Syrian golden hamster [5] it was 6%; in the assay on Syrian golden hamster [6], 4%. The Activity is recorded as 4% in the assay on Syrian golden hamster [7], -20% in the assay with Syrian golden hamster [8] and -34% in the assay with Syrian golden hamster [9].
As for `C=C(C)[C@@H]1CC[C@]2(C)CC[C@]3(C)[C@H](CC[C@@H]4[C@@]5(C)CC[C@H](OC(=O)/C=C/c6cccs6)C(C)(C)[C@@H]5CC[C@]43C)[C@@H]12`, the Activity with Rattus norvegicus [1] was -12.5%; in the assay with Rattus norvegicus [2] it was -14.9%.
Take `CN(C)C(=N)NC(=N)N` [METFORMIN]: the Activity in the assay with Rattus norvegicus [1] is recorded as -23.5%; with Rattus norvegicus [2], -26.5%.
In the case of `C=C(C)[C@@H]1CC[C@]2(C)CC[C@]3(C)[C@H](CC[C@@H]4[C@@]5(C)CC[C@H](OC(=O)Cc6ccccn6)C(C)(C)[C@@H]5CC[C@]43C)[C@@H]12`, the Activity in the assay on Rattus norvegicus [1] is on record as -20.5%; with Rattus norvegicus [2] it was -18.2%.
For the compound `C=C(C)[C@@H]1CC[C@]2(C)CC[C@]3(C)[C@H](CC[C@@H]4[C@@]5(C)CC[C@H](OC(=O)/C=C/c6cccnc6)C(C)(C)[C@@H]5CC[C@]43C)[C@@H]12`, the Activity in the assay with Rattus norvegicus [1] is on record as -13.4%; in the assay with Rattus norvegicus [2], -15.7%.
